Assay results published in paper PMC9151520 (Archives of Toxicology, 2022).
pEC50: −log10 of the molar value. Values joined by “and” are separate entries in the source; they are usually repeats but may differ in a detail not shown here. Equal entries are not always repeated. Structures can show the parent of a compound that is named as a salt. Where two headings read alike, the source gives them in different places.

Assays:
[1] = system: p53 signaling (p53RE-bla HCT-116 cells); experiment: cells; conditions: Homo sapiens
[2] = system: p53 signaling (p53RE-bla HCT-116 cells); experiment: cells; assay type: cell-based
[3] = system: p53 signaling (p53RE-bla HCT-116 cells); experiment: cells; assay type: cell-based; conditions: for pEC50: HCT-116
[4] = system: p53 signaling (p53RE-bla HCT-116 cells)
[5] = system: p53 signaling (p53RE-bla HCT-116 cells); remark: listed apart in the source
[6] = system: p53 signaling (p53RE-bla HCT-116 cells); experiment: cells; assay type: cell-based; remark: listed apart in the source
[7] = HCT-116, read-out: p53 activation EC50, primary screening
[8] = HCT-116, read-out: p53 activation efficacy, primary screening
[9] = HCT-116, read-out: EC50, p53 activation, primary screening
[10] = Homo sapiens, HCT-116, read-out: EC50, p53 activation, primary screening
[11] = Homo sapiens, HCT-116, read-out: Efficacy, p53 activation, cherry pick confirmation

Compound | p53 activation EC50, cherry pick confirmation [4] | p53 activation efficacy, cherry pick confirmation [4] | pEC50 [1, 7] | Emax [1, 8] [%] | p53 activation EC50, cherry pick confirmation [5] | p53 activation EC50, primary screening [5] | p53 activation efficacy, cherry pick confirmation [5] | p53 activation efficacy, primary screening [5] | p53 activation EC50, cherry pick confirmation [6] | p53 activation EC50, primary screening [6] | p53 activation efficacy, cherry pick confirmation [6] | p53 activation efficacy, primary screening [6] | Viability EC50, cherry pick confirmation (p53RE-bla HCT-116 cells) | Viability EC50, primary screening (p53RE-bla HCT-116 cells) | Viability efficacy, cherry pick confirmation (p53RE-bla HCT-116 cells) | Viability efficacy, primary screening (p53RE-bla HCT-116 cells) | other results
CCc1c2c(nc3ccc(OC(=O)N4CCC(N5CCCCC5)CC4)cc13)-c1cc3c(c(=O)n1C2)COC(=O)[C@]3(O)CC [Irinotecan, reference compound] |  |  |  |  |  |  |  |  |  |  |  |  |  |  |  |  | pEC50 ([1]; HCT-116): 6.64; Emax ([1]; HCT-116, read-out: efficacy): 109%; EC50 [2]: Inactive; pEC50 ([3]; Homo sapiens): 6.54; Emax ([3]; Homo sapiens, HCT-116, read-out: efficacy): 79.9%
CC(O)CN(CC(C)O)CC(C)O (stereo not drawn) [Triisopropanolamine] | inactive | inactive | 4.43 | 40 | inactive | inactive | inactive | inactive | inactive | inactive | inactive | inactive | inactive | inactive | inactive | inactive | 
Aflatoxin B1 [reference compound] |  |  |  |  |  |  |  |  |  |  |  |  |  |  |  |  | p53 activation efficacy [4]: 77.9079 and 59.8273; potency in the confirmation study compared to the primary screening [4]: tenfold higher potency; EC50 [2]: inactive; pEC50 [5]: 5.35 and 5.28 and 5.52; EC50 [3]: inactive
CN1CCc2cc3c(cc2C1O)OCO3 (stereo not drawn) [Hydrastinine hydrochloride] | inactive | inactive | 4.54 | 56.5 | inactive | inactive | inactive | inactive | inactive | inactive | inactive | inactive | inactive | inactive | inactive | inactive | 
O=C(O)CCCc1ccc(N(CCCl)CCCl)cc1 [Chlorambucil] |  |  |  |  |  |  |  |  |  |  |  |  |  |  |  |  | p53 activation EC50 [4]: inactive; pEC50 ([1]; HCT-116, read-out: p53 activation EC50): 4.65; Emax ([1]; HCT-116, read-out: p53 activation efficacy): 25.2%; p53 activation EC50 [5]: inactive; p53 activation efficacy [5]: inactive; p53 activation efficacy [6]: 39.7467; pEC50 ([6]; Homo sapiens, HCT-116, read-out: p53 activation EC50): 4.59; Emax ([6]; Homo sapiens, HCT-116, read-out: p53 activation efficacy): 31.3%; pEC50 ([6]; read-out: p53 activation EC50): 4.43; Viability EC50 (p53RE-bla HCT-116 cells): inactive; Viability efficacy (p53RE-bla HCT-116 cells): inactive
O=P(OCC(Br)CBr)(OCC(Br)CBr)OCC(Br)CBr (stereo not drawn) [Tris(2,3-dibromopropyl) phosphate] | inactive | inactive | 4.33 | 38.9 | inactive | inactive | inactive | inactive | inactive | inactive | inactive | inactive | inactive | inactive | inactive | inactive | 
C=CC1(C)OC(=O)N(c2cc(Cl)cc(Cl)c2)C1=O (stereo not drawn) [Vinclozolin] | inactive | inactive | 4.77 | 39.4 | inactive | inactive | inactive | inactive | inactive | inactive | inactive | inactive | inactive | inactive | inactive | inactive | 
c1ccc2c(c1)-c1cccc3cccc-2c13 [Fluoranthene] | inactive | inactive | 4.61 | 33.6 | inactive | inactive | inactive | inactive | inactive | inactive | inactive | inactive | inactive | inactive | inactive | inactive | 
O=c1[nH]c(=O)n([C@H]2C[C@H](O)[C@@H](CO)O2)cc1F [Floxuridine] |  |  |  |  |  |  |  |  |  |  |  |  |  |  |  |  | EC50, p53 activation, cherry pick confirmation [4]: inactive; Efficacy, p53 activation, cherry pick confirmation [4]: inactive; pEC50 [1, 9]: 6.49; EC50, p53 activation, cherry pick confirmation [5]: inactive; EC50, p53 activation, primary screening [5]: inactive; Efficacy, p53 activation, cherry pick confirmation [5]: inactive; Efficacy, p53 activation, primary screening [5]: inactive; pEC50 ([6]; Homo sapiens, HCT-116, read-out: EC50, p53 activation, cherry pick confirmation): 4.80; pEC50 [6, 10]: 6.19; Emax [6, 11]: 59.4%; EC50, viability, cherry pick confirmation (p53RE-bla HCT-116 cells): inactive; EC50, viability, primary screening (p53RE-bla HCT-116 cells): inactive; Efficacy, viability, cherry pick confirmation (p53RE-bla HCT-116 cells): inactive; Efficacy, viability, primary screening (p53RE-bla HCT-116 cells): inactive
COP(=O)(OC)O/C(=C\Cl)c1cc(Cl)c(Cl)cc1Cl [Tetrachlorvinphos (Gardona), Tetrachlorvinphos] |  |  |  |  |  |  |  |  |  |  |  |  |  |  |  |  | pEC50 ([1]; HCT-116): 4.98; Emax ([1]; HCT-116, read-out: efficacy): 39.9%; pEC50 ([2]; Homo sapiens, HCT-116, 0.5 h): 5.60; pEC50 ([3]; Homo sapiens): 4.74
COc1cc([C@@H]2c3cc4c(cc3[C@@H](O[C@@H]3O[C@@H]5CO[C@@H](C)O[C@H]5[C@H](O)[C@H]3O)[C@H]3COC(=O)[C@H]23)OCO4)cc(OC)c1O [etoposide, reference compound] |  |  |  |  |  |  |  |  |  |  |  |  |  |  |  |  | p53 induction in the presence of microsomes compared with absence of microsomes [4]: inactivity or lower activity; pEC50 [1, 9]: 6.05; Emax ([1]; HCT-116, read-out: Efficacy, p53 activation, cherry pick confirmation): 32.9%; Emax ([1]; HCT-116, read-out: Efficacy, p53 activation, primary screening): 22.1%; EC50, p53 activation, cherry pick confirmation [5]: inactive; EC50, p53 activation, primary screening [5]: inactive; Efficacy, p53 activation, cherry pick confirmation [5]: inactive; Efficacy, p53 activation, primary screening [5]: inactive; pEC50 [6, 10]: 5.88; Emax [6, 11]: 72.1%; Emax ([6]; Homo sapiens, HCT-116, read-out: Efficacy, p53 activation, primary screening): 62.9%; EC50, viability, cherry pick confirmation (p53RE-bla HCT-116 cells): inactive; EC50, viability, primary screening (p53RE-bla HCT-116 cells): inactive; Efficacy, viability, cherry pick confirmation (p53RE-bla HCT-116 cells): inactive; Efficacy, viability, primary screening (p53RE-bla HCT-116 cells): inactive
O=C1OC(O)C(Cl)=C1Cl (stereo not drawn) [Mucochloric acid] | inactive | inactive | 4.31 | 51.8 | inactive | inactive | inactive | inactive |  | inactive |  | inactive | inactive | inactive | inactive | inactive | pEC50 ([6]; Homo sapiens, HCT-116, read-out: p53 activation EC50, cherry pick confirmation): 4.80; Emax ([6]; Homo sapiens, HCT-116, read-out: p53 activation efficacy, cherry pick confirmation): 180%
